Where two headings read alike, the source gives them in different places.
Key:
newborn rat thymocytes = conditions: Con A 50 pg/mL
Source text: It was used an octapeptide with similar weight for the elaboration of the complex, to which was just the proline (4) and Glycine (5) original amino acids were interchanged by proline (4) and Glycine (5) resulting as […].

Jurkat cells = conditions: peptide 10^−10M, PHA 1 μg/mL
IL-2 = conditions: umbilical cord blood; PHA; cited from earlier work
THP-1 cells = conditions: for Proliferation (% with respect to the control): LPS 0.5 μg/mL
Source text: We proceeded to perform some related to the proliferative stimulation of the peptide in presence of other divalent cations such as magnesium, copper, and manganese.

human lymphocytes = conditions: for Proliferation (% with respect to the control): PHA 1 μg/mL

Which “Proliferation (% with respect to the control)” value (newborn rat thymocytes; 10^−6 (918 ng/mL)) does the source give for LEDGPKFL [reference compound] here?
Its value is 123.1 ± 6.1 %.

What about the “Proliferation (% with respect to the control)” value (newborn rat thymocytes; 10^−7 (91.8 ng/mL)) of the same substance?
The value was 125.6 ± 3.9 %.

What about the “Proliferation (% with respect to the control)” value (newborn rat thymocytes; 10^−7.5 (9.58 ng/mL)) of the same substance?
Its value is 119.2 ± 6.1 %.

What about the “Proliferation (% with respect to the control)” value (newborn rat thymocytes; 10^−8 (9.18 ng/mL)) of the same substance?
Its value is 117.3 ± 3.2 %.

What about the “Proliferation (% with respect to the control)” value (newborn rat thymocytes; 10^−9 (0.91 ng/mL)) of the same substance?
Its value is 110.6 ± 7.9%.

And the “Proliferation (% with respect to the control)” value (newborn rat thymocytes; 10^−10 (0.09 ng/mL))?
Its value is 104.3 ± 4.8%.

And the “Proliferation (% with respect to the control)” value (newborn rat thymocytes; 10^−11 (0.009 ng/mL))?
The value was 103.7 ± 5.1%.

What about the “Proliferation (% with respect to the control)” value (newborn rat thymocytes; 10^−12 (0.0009 ng/mL)) of the same substance?
Its value is 104.4 ± 2.5%.

What about the “Proliferation (% with respect to the control)” value (Jurkat cells; [ZINC] (M) −8) of the same substance?
The value was 195 ± 10 %.

And the “Proliferation (% with respect to the control)” value (Jurkat cells; [ZINC] (M) −9)?
The value was 192 ± 12 %.

And the “Proliferation (% with respect to the control)” value (Jurkat cells; [ZINC] (M) −10)?
Its value is 190 ± 10 %.

And the “Proliferation (% with respect to the control)” value (Jurkat cells; [ZINC] (M) −11)?
Its value is 135 ± 10 %.

And the “Proliferation (% with respect to the control)” value (Jurkat cells; [ZINC] (M) −12)?
The value was 102 ± 5.2%.

What about the “Concentrations increasing IL-2 production” value (IL-2) of the same substance?
The value was 300 to 600 ng/mL.

Which “Proliferation (% with respect to the control)” value (THP-1 cells; Concentration (M) −6) does the source give for Zinc [reference compound] here?
Its value is 105 ± 8.8%.

What about the “Proliferation (% with respect to the control)” value (THP-1 cells; Concentration (M) −7) of the same substance?
Its value is 102 ± 9.7%.

What about the “Proliferation (% with respect to the control)” value (THP-1 cells; Concentration (M) −7.5) of the same substance?
Its value is 104 ± 8.8%.

And the “Proliferation (% with respect to the control)” value (THP-1 cells; Concentration (M) −8)?
Its value is 102 ± 12.1%.

What about the “Proliferation (% with respect to the control)” value (THP-1 cells; Concentration (M) −9) of the same substance?
The value was 103 ± 9.9%.

What about the “Proliferation (% with respect to the control)” value (THP-1 cells; Concentration (M) −10) of the same substance?
The value was 100 ± 7.0%.

And the “Proliferation (% with respect to the control)” value (THP-1 cells; Concentration (M) −11)?
Its value is 101 ± 3.9%.

And the “Proliferation (% with respect to the control)” value (THP-1 cells; Concentration (M) −12)?
The value was 98 ± 4.5%.

And the “Effect on proliferation” value (THP-1 cells; zinc ion by itself)?
The value was “did not stimulate the proliferation”.

And the “Proliferation (% with respect to the control)” value (human lymphocytes; Concentration (M) −6)?
Its value is 96 ± 2.8%.

And the “Proliferation (% with respect to the control)” value (human lymphocytes; Concentration (M) −7)?
The value was 99 ± 2.7%.

What about the “Proliferation (% with respect to the control)” value (human lymphocytes; Concentration (M) −7.5) of the same substance?
Its value is 95 ± 3.8%.

And the “Proliferation (% with respect to the control)” value (human lymphocytes; Concentration (M) −8)?
Its value is 101 ± 4.1%.

And the “Proliferation (% with respect to the control)” value (human lymphocytes; Concentration (M) −9)?
Its value is 103 ± 3.9%.

And the “Proliferation (% with respect to the control)” value (human lymphocytes; Concentration (M) −10)?
The value was 100 ± 3.0%.

And the “Proliferation (% with respect to the control)” value (human lymphocytes; Concentration (M) −11)?
The value was 99 ± 3.9%.

What about the “Proliferation (% with respect to the control)” value (human lymphocytes; Concentration (M) −12) of the same substance?
Its value is 96 ± 4.5%.

What about the “Effect on proliferation” value (human lymphocytes; zinc ion by itself, PHA stimulated) of the same substance?
Its value is “did not modify the proliferation”.
